Our source for the IC50 and EC50 values is patent publication US9169252B2 (BRISTOL-MYERS SQUIBB COMPANY, priority 2014, dated 2015).

Assay [1] relates to TLR2 induced IL-6 in peripheral blood mononuclear cells (PBMCs). The assay can be described thus: PBMC TLR2 Induced IL-6 Assay. It is filed as cell-based, human. Conditions: PBMC TLR2 Induced IL-6 Assay, lipoteichoic acid stimulation, IL-6 by ELISA; for pIC50: read-out: Cell IC50; for pEC50: read-out: Cell EC50. The essentials: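 Lipoteichoic acid at 10 µg/ml served as TLR2 stimulus for 5 hours, following a 30-minute compound pretreatment at 37° C. Cells were Ficoll-isolated human PBMCs, 250000 cells/well, cultured in RPMI plus 10% heat-inactivated FCS.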
Background: In an ELISA, binding on a coated surface is turned into a signal by an enzyme label.

A further assay deals with IRAK4 (Homo sapiens (Human), UniProt Q9NWZ3). The assay can be described thus: IRAK4 Inhibition Assay. The format is biochemical. Conditions: IRAK4 Inhibition Assay; ATP 500 μM; read-out: IRAK4 IC50. The essentials: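 Mobility-shift readout: fluorescent substrate and phosphoproduct resolved electrophoretically on Caliper LabChip 3000 after EDTA quench (35 mM). Enzyme reaction of IRAK4, substrates and test compound ran 60 min at room temperature.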

pEC50, pIC50: −log10 of the molar value. Like-named read-outs stand apart in the source and are kept apart here.

Chain of IRAK4 (Q9NWZ3 whole entry, species assumed): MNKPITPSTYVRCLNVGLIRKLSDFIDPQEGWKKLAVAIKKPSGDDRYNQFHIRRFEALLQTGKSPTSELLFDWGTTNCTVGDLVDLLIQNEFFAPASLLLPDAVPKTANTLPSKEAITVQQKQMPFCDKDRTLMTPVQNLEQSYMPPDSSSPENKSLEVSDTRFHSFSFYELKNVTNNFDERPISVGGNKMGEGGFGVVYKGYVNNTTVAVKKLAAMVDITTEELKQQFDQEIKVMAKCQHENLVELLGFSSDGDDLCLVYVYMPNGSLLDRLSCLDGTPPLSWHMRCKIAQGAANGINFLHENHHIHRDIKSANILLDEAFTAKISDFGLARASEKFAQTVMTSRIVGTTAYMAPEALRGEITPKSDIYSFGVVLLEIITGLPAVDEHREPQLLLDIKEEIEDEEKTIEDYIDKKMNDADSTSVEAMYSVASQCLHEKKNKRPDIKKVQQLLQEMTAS

By pIC50 is commonly meant the negative decadic logarithm of the IC50, by convention in mol/L. In the case of `CC(C)Nc1cc(-n2ncc3cc(C#N)cnc32)ncc1C(=O)NCCC(C)(F)F` [Example 332], the negative-log IC50 (pIC50) in assay [1] (Homo sapiens, PBMC) is 6.80; on IRAK4 it was 7.89.

What is called pEC50 is the negative decadic logarithm of the EC50, by convention in mol/L. For the compound `CC(C)Nc1cc(-n2ncc3cnc(NC[C@@H](F)C(C)(C)O)nc32)ncc1C(=O)NC[C@@H](F)C(C)(C)O` [Example 334], the pEC50 in assay [1] (Homo sapiens, PBMC) is 6.34. On IRAK4, the negative logarithm of the IC50 (pIC50) is 7.73.

In the case of `CC(C)Nc1cc(-n2ncc3cc(C#N)cnc32)ncc1C(=O)NC[C@@H](F)C(C)(C)O` [Example 335], the negative logarithm of the EC50 (pEC50) in assay [1] is 7.11. Further, the negative logarithm of the IC50 (pIC50) at IRAK4 is 8.48.

Take `CC(C)(O)[C@H](F)CNC(=O)c1cnc(-n2ncc3cc(C#N)cnc32)cc1NC1CC1` [Example 336]: the pIC50 was 6.25 in assay [1] (Homo sapiens, PBMC) and 8.42 on IRAK4. In addition, the negative logarithm of the EC50 (pEC50) in assay [1] was 6.77.

As to `CC(C)(O)[C@H](F)CNC(=O)c1cnc(-n2cnc3cc(C#N)cnc32)cc1NC1CCC1` [Example 338], the pIC50 in assay [1] (Homo sapiens, PBMC) is 6.83; at IRAK4, 8.35.

Take `CC(C)Nc1cc(-n2cnc3cc(Cl)cnc32)ncc1C(=O)NC[C@@H](F)C(C)(C)O` [Example 339]: the negative-log IC50 (pIC50) in assay [1] (Homo sapiens, PBMC) was 6.48; at IRAK4 it was 8.40.

Regarding `CC(C)(O)[C@H](F)CNC(=O)c1cnc(-n2cnc3cc(Cl)cnc32)cc1NC1COC1` [Example 340], in assay [1] (Homo sapiens, PBMC), the pEC50 is 6.27. The pIC50 on IRAK4 was 8.00.

Take `CC(C)Nc1cc(-n2cnc3cc(C#N)c(N)nc32)ncc1C(=O)NC[C@@H](F)C(C)(C)O` [Example 341]: the pEC50 in assay [1] (Homo sapiens, PBMC) was 6.79. In addition, on IRAK4, the pIC50 was 8.72.

On to `CC(C)Nc1cc(-n2cnc3cc(C#N)cnc32)ncc1C(=O)NC[C@@H](F)C(C)(C)F` [Example 342], for which the pIC50 is 6.37 in assay [1] (Homo sapiens, PBMC) and 8.06 on IRAK4.

With `CC1(Nc2cc(-n3cnc4cc(C#N)cnc43)ncc2C(=O)NC[C@@H](F)C(C)(C)O)CC1` [Example 343], the negative logarithm of the IC50 (pIC50) in assay [1] (Homo sapiens, PBMC) was 6.37; at IRAK4, 8.46.

`CC(C)(F)[C@H](F)CNC(=O)c1cnc(-n2cnc3cc(C#N)cnc32)cc1NC1COC1` [Example 344]: the negative logarithm of the IC50 (pIC50) in assay [1] (Homo sapiens, PBMC) was 6.84; on IRAK4, 7.87.

`CC(C)(O)[C@H](F)CNC(=O)c1cnc(-n2cnc3cc(C#N)cnc32)cc1NC1CCOCC1` [Example 345]: the pIC50 in assay [1] (Homo sapiens, PBMC) is 6.74; at IRAK4, 8.13.

As for `CC(C)Nc1cc(-n2cnc3cnc(N)nc32)ncc1C(=O)NC[C@@H](F)C(C)(C)F` [Example 346], the pIC50 in assay [1] (Homo sapiens, PBMC) is 6.51; on IRAK4, 8.44.

With `CC(C)(O)[C@H](F)CNC(=O)c1cnc(-n2ncc3cc(C#N)cnc32)cc1Nc1cnn(CC(F)F)c1` [Example 347, (R)-6-(5-Cyano-1H-pyrazolo[3,4-b]pyridin-1-yl)-4-((1-(2,2-difluoroethyl)-1H-pyrazol-4-yl)amino)-N-(2-fluoro-3-hydroxy-3-methylbutyl)nicotinamide], the pIC50 is 6.84 in assay [1] (Homo sapiens, PBMC) and 8.89 at IRAK4.

For `CC(C)(O)[C@H](F)CNC(=O)c1cnc(-n2ncc3cc(C#N)cnc32)cc1Nc1cnn(C2COC2)c1` [Example 348], the pIC50 in assay [1] (Homo sapiens, PBMC) is 6.31; at IRAK4, 8.74.

As for `CC(C)(O)[C@H](F)CNC(=O)c1cnc(-n2ncc3cc(C#N)cnc32)cc1Nc1cnn(C2CCOCC2)c1` [Example 349], the pIC50 in assay [1] (Homo sapiens, PBMC) was 6.74; on IRAK4, 8.48.

`CC(C)(O)[C@H](F)CNC(=O)c1cnc(-n2ncc3cc(Cl)cnc32)cc1Nc1cnn(CC(F)F)c1` [Example 351]: the negative-log IC50 (pIC50) was 7.57 in assay [1] (Homo sapiens, PBMC) and 8.64 at IRAK4.

Take `CC(C)(O)[C@H](F)CNC(=O)c1cnc(-n2ncc3cc(Cl)cnc32)cc1Nc1cnn(C2CCOCC2)c1` [Example 352]: the negative logarithm of the IC50 (pIC50) in assay [1] (Homo sapiens, PBMC) is 6.77; at IRAK4, 8.19.

Consider `CC(C)(O)[C@H](F)CNC(=O)c1cnc(-n2ncc3cc(C#N)cnc32)cc1Nc1cnn(CC(F)(F)F)c1` [Example 353], for which the pIC50 is 7.74 in assay [1] (Homo sapiens, PBMC) and 8.77 on IRAK4.

For the compound `CC(C)(O)[C@H](F)CNC(=O)c1cnc(-n2ncc3cc(Cl)cnc32)cc1Nc1cnn(CC(F)(F)F)c1` [Example 354], the pIC50 was 6.94 in assay [1] (Homo sapiens, PBMC) and 8.72 at IRAK4.

`CCn1cc(Nc2cc(-n3ncc4cc(C#N)cnc43)ncc2C(=O)NC[C@@H](F)C(C)(C)O)cn1` [Example 355]: the pIC50 was 6.91 in assay [1] (Homo sapiens, PBMC) and 8.62 at IRAK4.

In the case of `CC(C)(F)Cn1cc(Nc2cc(-n3ncc4cc(C#N)cnc43)ncc2C(=O)NC[C@@H](F)C(C)(C)O)cn1` [Example 356], the pIC50 is 6.81 in assay [1] (Homo sapiens, PBMC) and 8.62 on IRAK4.

For `CCn1cc(Nc2cc(-n3ncc4cc(Cl)cnc43)ncc2C(=O)NC[C@@H](F)C(C)(C)O)cn1` [Example 357], the pIC50 is 7.17 in assay [1] (Homo sapiens, PBMC) and 8.77 on IRAK4.

For `CC(C)n1cc(Nc2cc(-n3ncc4cc(Cl)cnc43)ncc2C(=O)NC[C@@H](F)C(C)(C)O)cn1` [Example 358], the pIC50 in assay [1] (Homo sapiens, PBMC) was 6.59; on IRAK4, 8.46.

On to `CC(C)(O)[C@H](F)CNC(=O)c1cnc(-n2cnc3cc(Cl)cnc32)cc1Nc1cnn(CC(F)F)c1` [Example 359], for which the negative-log IC50 (pIC50) is 7.08 in assay [1] (Homo sapiens, PBMC) and 8.89 on IRAK4.

In the case of `CC(C)(O)[C@H](F)CNC(=O)c1cnc(-n2cnc3cc(Cl)cnc32)cc1Nc1cnn(CC(F)(F)F)c1` [Example 360], the pIC50 in assay [1] (Homo sapiens, PBMC) is 6.42; on IRAK4, 8.82.

As for `CCn1cc(Nc2cc(-n3cnc4cc(Cl)cnc43)ncc2C(=O)NC[C@@H](F)C(C)(C)O)cn1` [Example 361], the pIC50 in assay [1] (Homo sapiens, PBMC) is 6.69; on IRAK4 it was 8.54.

`CC(C)n1cc(Nc2cc(-n3cnc4cc(Cl)cnc43)ncc2C(=O)NC[C@@H](F)C(C)(C)O)cn1` [Example 362]: the negative logarithm of the IC50 (pIC50) in assay [1] (Homo sapiens, PBMC) was 6.31; on IRAK4 it was 8.37.

`COCCn1cc(Nc2cc(-n3ncc4cc(C#N)cnc43)ncc2C(=O)NC[C@@H](F)C(C)(C)O)cn1` [Example 363]: the pIC50 in assay [1] (Homo sapiens, PBMC) is 6.34; at IRAK4, 8.49.

In the case of `COCCn1cc(Nc2cc(-n3ncc4cc(Cl)cnc43)ncc2C(=O)NC[C@@H](F)C(C)(C)O)cn1` [Example 364], the pIC50 in assay [1] (Homo sapiens, PBMC) was 7.08; on IRAK4, 8.59.

In the case of `CC(F)(F)Cn1cc(Nc2cc(-n3ncc4cc(C#N)cnc43)ncc2C(=O)NC[C@@H](F)C(C)(C)O)cn1` [Example 365], the pIC50 in assay [1] (Homo sapiens, PBMC) was 7.18; at IRAK4 it was 8.77.

For `COCCn1cc(Nc2cc(-n3cnc4cc(Cl)cnc43)ncc2C(=O)NC[C@@H](F)C(C)(C)O)cn1` [Example 366], the negative-log IC50 (pIC50) in assay [1] (Homo sapiens, PBMC) was 6.69; at IRAK4 it was 8.10.

For `CC(C)(O)[C@H](F)CNC(=O)c1cnc(-n2ncc3cc(Cl)cnc32)cc1Nc1cnn(CCCF)c1` [Example 367], the pIC50 is 7.39 in assay [1] (Homo sapiens, PBMC) and 8.89 at IRAK4.

`CC(C)(O)[C@H](F)CNC(=O)c1cnc(-n2ncc3cc(C#N)cnc32)cc1Nc1cnn(CCCF)c1` [Example 368]: the negative logarithm of the IC50 (pIC50) in assay [1] (Homo sapiens, PBMC) was 7.21; on IRAK4, 8.62.

Regarding `CC(F)(F)Cn1cc(Nc2cc(-n3ncc4cc(Cl)cnc43)ncc2C(=O)NC[C@@H](F)C(C)(C)O)cn1` [Example 369], the pIC50 in assay [1] (Homo sapiens, PBMC) is 7.49; on IRAK4, 8.72.

For `CC(C)(O)[C@H](F)CNC(=O)c1cnc(-n2cnc3cc(Cl)cnc32)cc1Nc1cnn(CCCF)c1` [Example 370], the negative-log IC50 (pIC50) in assay [1] (Homo sapiens, PBMC) was 7.08; on IRAK4 it was 8.59.

As to `CC(C)(O)[C@H](F)CNC(=O)c1cnc(-n2ccc3cc(C#N)cnc32)cc1Nc1cnn(CC(F)(F)F)c1` [Example 371], the negative-log IC50 (pIC50) was 7.35 in assay [1] (Homo sapiens, PBMC) and 8.68 on IRAK4.

As to `CCn1cc(Nc2cc(-n3ccc4cc(C#N)cnc43)ncc2C(=O)NC[C@@H](F)C(C)(C)O)cn1` [Example 372], the negative logarithm of the IC50 (pIC50) was 8.70 in assay [1] (Homo sapiens, PBMC) and 8.92 at IRAK4.

Take `CC(C)(O)[C@H](F)CNC(=O)c1cnc(-n2ccc3cc(C#N)cnc32)cc1Nc1cnn(C2CCOCC2)c1` [Example 373]: the negative-log IC50 (pIC50) is 7.15 in assay [1] (Homo sapiens, PBMC) and 8.62 on IRAK4.

Turning to `CC(C)(O)[C@H](F)CNC(=O)c1cnc(-n2cnc3cc(Cl)cnc32)cc1Nc1cnn(CCC#N)c1` [Example 374], the negative-log IC50 (pIC50) is 7.07 in assay [1] (Homo sapiens, PBMC) and 8.48 at IRAK4.

On to `CC(C)(O)[C@H](F)CNC(=O)c1cnc(-n2cnc3cc(C#N)cnc32)cc1Nc1cnn(CC(F)F)c1` [Example 375], for which the pIC50 in assay [1] (Homo sapiens, PBMC) was 6.81; on IRAK4 it was 8.74.

Consider `CC(C)(O)[C@H](F)CNC(=O)c1cnc(-n2ncc3cc(C#N)cnc32)cc1Nc1cnn(CCC#N)c1` [Example 376], for which the pIC50 in assay [1] (Homo sapiens, PBMC) was 6.46; at IRAK4, 8.68.

Take `CC(C)(O)[C@H](F)CNC(=O)c1cnc(-n2ncc3cc(Cl)cnc32)cc1Nc1cnn(CCC#N)c1` [Example 377]: the pIC50 in assay [1] (Homo sapiens, PBMC) is 6.36; on IRAK4, 8.57.

For the compound `CCCn1cc(Nc2cc(-n3ncc4cc(C#N)cnc43)ncc2C(=O)NC[C@@H](F)C(C)(C)O)cn1` [Example 380], the negative-log IC50 (pIC50) in assay [1] (Homo sapiens, PBMC) was 6.64; on IRAK4 it was 8.54.

With `CCCn1cc(Nc2cc(-n3ncc4cc(Cl)cnc43)ncc2C(=O)NC[C@@H](F)C(C)(C)O)cn1` [Example 381], the negative-log IC50 (pIC50) in assay [1] (Homo sapiens, PBMC) was 7.39; at IRAK4, 8.60.

On to `CCCn1cc(Nc2cc(-n3cnc4cc(Cl)cnc43)ncc2C(=O)NC[C@@H](F)C(C)(C)O)cn1` [Example 382], for which the pIC50 in assay [1] (Homo sapiens, PBMC) was 6.32; at IRAK4, 8.60.

Take `CCCn1cc(Nc2cc(-n3ccc4cc(C#N)cnc43)ncc2C(=O)NC[C@@H](F)C(C)(C)O)cn1` [Example 383]: the pIC50 in assay [1] (Homo sapiens, PBMC) is 6.95; at IRAK4, 8.85.
